Results taken from paper PMC7198766, “Structure-Activity Studies on the Hypertrehalosemic Hormone II of the Stick Insect Carausius morosus (Phasmatodea): Carbohydrate-Mobilization and Cardio-Stimulatory Activities” (Frontiers in Physiology, 2020).
Several values for one entry are separate records, joined by “and”; a condition that tells them apart may be missing. Equal values may be shown once. Marks after values point to notes of the source that are not given here.

Columns and labels:
[1] = test system: heart of neck-ligated Carausius morosus; test: Semi-exposed heart bioassay (heart beat rate); assay type: in vivo; details: for Heart rate, Post-application: after application of 20 pmol peptide in 150 μl saline, average of first four counts; for Heart rate, Post-application / Heart rate, Pre-application: neck-ligated stick insects; for Heart rate, Pre-application: in saline before application, semi-exposed heart; for Heart rate, Difference: post- minus pre-application; for Heart rate, Difference / % Activity relative to the effect of Carmo-HrTH-II (myotropic): 20 pmol peptide in 150 μl; for % Activity relative to the effect of Carmo-HrTH-II (myotropic): heart rate increase relative to Carmo-HrTH-II = 100, NS = no significant increase
Protocol: The semi-exposed heart bioassay was carried out as described ([Marco et al., 2018]) with adult stick insects between 1 and 2 months old that were ligated at the neck. Briefly, a ventral incision of the abdomen exposed the ventral cavity with the internal organs; a few drops of stick insect saline (pH 6.6; 15 mM NaCl, 18 mM KCl, 7.5 mM CaCl2, 2 mM HEPES, 50 mM MgCl2, and 184 mM glucose according to [Ejaz and Lange, 2008]) were added to the exposed part. The semi-isolated heart preparation was viewed with a dissecting microscope (12-fold magnification), and the number of observed heart beats (contractions of the heart muscle) was counted during a fixed period using a manual tally counter and a timer. Once the heart had stabilized, saline was replaced with the test solution. For this the peptide stock solution of 5 pmol μl^–1 was diluted with stick insect saline to the desired concentration and a final volume of 150 μl was used for each test.
Heart rates under normal saline served as controls. The change in heart rate after the application of the test solution was calculated as an average of the first four counts and was compared to the average heart rates counted in saline before the application of the test solution. This comparison of change in heart rates was done for all the peptides tested.

[2] = test system: ligated 6th instar Indian stick insects (Carausius morosus); test: Carbohydrate-mobilization (hypertrehalosemic) in vivo assay; details: for Hemolymph carbohydrates, 90 min: 90 min after injection of 20 pmol peptide in 10 μl; for Hemolymph carbohydrates, 90 min / Hemolymph carbohydrates, Difference: neck-ligated 6th instar nymphs; for Hemolymph carbohydrates, Difference: 90 min minus 0 min, 20 pmol peptide in 10 μl injected; for Hemolymph carbohydrates, 0 min: before injection (0 min), 2 h after neck ligation, group later given 20 pmol peptide in 10 μl, 6th instar nymphs; for % Activity relative to the effect of Carmo-HrTH-II (metabolic): 20 pmol peptide injected, carbohydrate increase relative to Carmo-HrTH-II = 100, NS = no significant increase
Protocol: Sixth instar nymphs that were 1–2 days before molting were neck-ligated and used in the hypertrehalosemic in vivo assay as described in detail by [Gäde and Lohr (1982)]. Stock peptide solutions (5 pmol μl^–1) were diluted with distilled water to the desired concentration in 10 μl, which was injected into the stick insect nymphs.
In the first series of experiments, various doses of synthetic Carmo-HrTH-II and corpora cardiaca (CC) extract of C. morosus were used to determine the maximal hypertrehalosemic response of C. morosus. Hemolymph samples were taken from 17 to 18 days old 6th instar nymphs 2 h after they were neck-ligated and then 90 min after either CC extract or synthetic Carmo-HrTH-II was injected. Ligated nymphs injected with distilled water served as controls for handling stress. As depicted in Figures 1A,B, various doses of both Carmo-HrTH-II and CC extract increased the level of carbohydrates in the hemolymph in a dose-dependent manner. A dose of 0.04 pmol of synthetic Carmo-HrTH-II and the equivalent of 0.005 pairs of corpora cardiaca (pCC) were sufficient to give significant increases in hemolymph carbohydrates (p < 0.05). […] Doses of 0.1–0.5 pCC gave an average increase of 5.6 ± 0.6 mg carbohydrates ml^–1 hemolymph (Figure 1B); again, statistical analyses reveal no significant difference between the effect of these doses (p > 0.05).
Based on these pilot experiments, we selected a dose of 20 pmol for testing the analogs of Carmo-HrTH-II since such a dose of our lead compound, Carmo-HrTH-II had achieved maximal hypertrehalosemic activity.

Substance	Heart rate, Post-application [1]	Heart rate, Pre-application [1]	Heart rate, Difference [1]	Hemolymph carbohydrates, 90 min [2]	Hemolymph carbohydrates, Difference [2]	Hemolymph carbohydrates, 0 min [2]	% Activity relative to the effect of Carmo-HrTH-II (myotropic) [1]	% Activity relative to the effect of Carmo-HrTH-II (metabolic) [2]
pGlu-Leu-Thr-Phe-Ala-Pro-Asn-Trp-Gly-Thr amide [Ala^5-Carmo-HrTH-II]	40 ± 7 beats min^−1	39 ± 7 beats min^−1	1 ± 2 beats min^−1	10.1 ± 1.3 mg/mL	-0.1 ± 0.1 mg/mL	10.2 ± 1.2 mg/mL		
pGlu-Leu-Asn-Phe-Thr-Pro-Asn-Trp-Gly-Thr amide [Locmi-AKH-I, naturally-occurring AKH decapeptide bioanalog, reference compound]	43 ± 4 beats min^−1	40 ± 4 beats min^−1	3 ± 1 beats min^−1	9.9 ± 1.2 mg/mL	1.0 ± 1.2 mg/mL	8.9 ± 1.3 mg/mL	25%	19%
Leu-Thr-Phe-Thr-Pro-Asn-Trp-Gly-Thr amide	46 ± 5 beats min^−1	39 ± 6 beats min^−1	7 ± 2 beats min^−1	9.5 ± 1.5 mg/mL	0.7 ± 1.3 mg/mL	8.8 ± 1.7 mg/mL	58%	
pGlu-Leu-Thr-Phe-Thr-Pro-Asn-Trp amide [Peram-CAH-II, naturally-occurring AKH octapeptide bioanalog, reference compound]				11.0 ± 1.1 mg/mL	1.7 ± 2.0 mg/mL	9.3 ± 1.8 mg/mL		30% and 31%
pGlu-Leu-Thr-Phe-Thr-Ala-Asn-Trp-Gly-Thr amide [Ala^6-Carmo-HrTH-II]	43 ± 5 beats min^−1	43 ± 5 beats min^−1	0 ± 0 beats min^−1	11.1 ± 0.9 mg/mL	1.6 ± 1.1 mg/mL	9.5 ± 1.2 mg/mL		
pGlu-Leu-Thr-Phe-Thr-Pro-Asn-Trp-Gly-Thr OH [Carmo-HrTH-II: free C-terminus]	47 ± 3 beats min^−1	40 ± 5 beats min^−1	7 ± 3 beats min^−1	10.4 ± 2.2 mg/mL	1.6 ± 1.6 mg/mL	8.8 ± 2.1 mg/mL	58%	30%
pGlu-Leu-Thr-Phe-Thr-Pro-Asn-Trp-Gly-Ser amide [Phyle-CC, naturally-occurring AKH decapeptide bioanalog, reference compound]	46 ± 6 beats min^−1	38 ± 7 beats min^−1	8 ± 2 beats min^−1	14.1 ± 1.7 mg/mL	5.9 ± 1.7 mg/mL	8.2 ± 1.9 mg/mL	67^b %	109^b %
